Source: ChEMBL document CHEMBL1150785 (Antimicrob Agents Chemother, 2007)

System: Mycobacterium tuberculosis
Assay: Effect on mutation frequency of Mycobacterium tuberculosis H37Ra assessed as mutation prevention concentration
Assay type: functional

NNC(=O)c1ccncc1 [ISONIAZID]
Activity: 50 mg/L
